Results from ChEMBL document CHEMBL1909294, “Translating clinical findings into knowledge in drug safety evaluation--drug induced liver injury prediction system (DILIps)” (PLoS Comput Biol, 2011).

Key:
Hepatotoxicity [1] = system: Hepatotoxicity;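 for HepSE bilirubinemia: bilirubinemia hepatic side effect score drawn from the DILIps training data, a prediction system for drug-induced liver injury; call rule not given here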;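 for HepSE cholecystitis: Cholecystitis-related hepatic side effect score drawn from the DILIps (drug-induced liver injury prediction) training data set; call rule not given here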;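 for HepSE cholelithiasis: hepatic side effect score for cholelithiasis, drawn from the DILIps training data for predicting drug-induced liver injury; call rule not given here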;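 for HepSE elevated liver function tests: hepatic side effect score for raised liver function tests, as recorded in the DILIps training set used for predicting drug-induced liver injury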; for HepSE hepatic failure: call rule not given here;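 for HepSE jaundice: Jaundice-related hepatic side-effect score drawn from the training data of the DILIps (drug-induced liver injury prediction system); call rule not given here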; for HepSE liver disease: call rule not given here
Hepatotoxicity [2] = system: Hepatotoxicity; remark: listed apart in the source;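 for HepSE bilirubinemia: bilirubinemia hepatic side effect score drawn from the DILIps training data, a prediction system for drug-induced liver injury; call rule not given here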;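 for HepSE cholecystitis: Cholecystitis-related hepatic side effect score drawn from the DILIps (drug-induced liver injury prediction) training data set; call rule not given here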;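 for HepSE cholelithiasis: hepatic side effect score for cholelithiasis, drawn from the DILIps training data for predicting drug-induced liver injury; call rule not given here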;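 for HepSE elevated liver function tests: hepatic side effect score for raised liver function tests, as recorded in the DILIps training set used for predicting drug-induced liver injury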; for HepSE hepatic failure: call rule not given here;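 for HepSE jaundice: Jaundice-related hepatic side-effect score drawn from the training data of the DILIps (drug-induced liver injury prediction system); call rule not given here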; for HepSE liver disease: call rule not given here
Hepatotoxicity [3] = system: Hepatotoxicity; remark: listed apart in the source;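 for HepSE bilirubinemia: bilirubinemia hepatic side effect score drawn from the DILIps training data, a prediction system for drug-induced liver injury; call rule not given here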;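 for HepSE cholecystitis: Cholecystitis-related hepatic side effect score drawn from the DILIps (drug-induced liver injury prediction) training data set; call rule not given here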;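 for HepSE cholelithiasis: hepatic side effect score for cholelithiasis, drawn from the DILIps training data for predicting drug-induced liver injury; call rule not given here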;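 for HepSE elevated liver function tests: hepatic side effect score for raised liver function tests, as recorded in the DILIps training set used for predicting drug-induced liver injury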; for HepSE hepatic failure: call rule not given here;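 for HepSE jaundice: Jaundice-related hepatic side-effect score drawn from the training data of the DILIps (drug-induced liver injury prediction system); call rule not given here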
Hepatotoxicity [4] = system: Hepatotoxicity; remark: listed apart in the source;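 for HepSE bilirubinemia: bilirubinemia hepatic side effect score drawn from the DILIps training data, a prediction system for drug-induced liver injury; call rule not given here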;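 for HepSE cholecystitis: Cholecystitis-related hepatic side effect score drawn from the DILIps (drug-induced liver injury prediction) training data set; call rule not given here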;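 for HepSE cholelithiasis: hepatic side effect score for cholelithiasis, drawn from the DILIps training data for predicting drug-induced liver injury; call rule not given here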;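 for HepSE elevated liver function tests: hepatic side effect score for raised liver function tests, as recorded in the DILIps training set used for predicting drug-induced liver injury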; for HepSE hepatic failure: call rule not given here;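 for HepSE jaundice: Jaundice-related hepatic side-effect score drawn from the training data of the DILIps (drug-induced liver injury prediction system); call rule not given here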
Hepatotoxicity [5] = system: Hepatotoxicity; remark: listed apart in the source; for HepSE hepatic failure: call rule not given here
Hepatotoxicity [6] = system: Hepatotoxicity; remark: listed apart in the source; for HepSE hepatic failure: call rule not given here
Hepatotoxicity [7] = system: Hepatotoxicity; remark: listed apart in the source
Hepatotoxicity [8] = system: Hepatotoxicity; remark: listed apart in the source
Hepatotoxicity [9] = system: Hepatotoxicity; remark: listed apart in the source
Hepatotoxicity [10] = system: Hepatotoxicity; remark: listed apart in the source
Hepatotoxicity [11] = system: Hepatotoxicity; remark: listed apart in the source
Hepatotoxicity [12] = system: Hepatotoxicity; remark: listed apart in the source
Hepatotoxicity [13] = system: Hepatotoxicity; remark: listed apart in the source
Hepatotoxicity [14] = system: Hepatotoxicity; remark: listed apart in the source

SMILES | HepSE_cholelithiasis (Hepatotoxicity [1]) | HepSE_bilirubinemia (Hepatotoxicity [2]) | HepSE_cholecystitis (Hepatotoxicity [3]) | HepSE_jaundice (Hepatotoxicity [4]) | HepSE_hepatic failure (Hepatotoxicity [5]) | HepSE_elevated liver function tests (Hepatotoxicity [6]) | HepSE_liver disease (Hepatotoxicity [7]) | HepSE_liver fatty (Hepatotoxicity [8]) | HepSE_liver function tests abnormal (Hepatotoxicity [9]) | HepSE_hepatic necrosis (Hepatotoxicity [10]) | HepSE_Combined Scores (Hepatotoxicity [11]) | HepSE_hepatomegaly (Hepatotoxicity [12]) | HepSE_hepatitis (Hepatotoxicity [13]) | HepSE_cirrhosis (Hepatotoxicity [14]) | also measured
Cc1nc(Nc2ncc(C(=O)Nc3c(C)cccc3Cl)s2)cc(N2CCN(CCO)CC2)n1.O [DASATINIB] | 0 | 0 | 1 | 0 | 0 | 0 | 0 | 0 | 1 | 0 | 3 | 0 | 1 | 0 | 
CCCN(CCC)S(=O)(=O)c1ccc(C(=O)O)cc1 [PROBENECID] | 0 | 0 | 0 | 0 | 0 | 0 | 0 | 0 | 0 | 1 | 1 | 0 | 0 | 0 | 
C=CC1=C(C(=O)O)N2C(=O)[C@@H](NC(=O)/C(=N\OCC(=O)O)c3csc(N)n3)[C@H]2SC1 [CEFIXIME] | 0 | 1 | 0 | 1 | 0 | 0 | 0 | 0 | 0 | 0 | 3 | 0 | 1 | 0 | 
C[N+](C)(C)CCOC(=O)CCC(=O)OCC[N+](C)(C)C [SUXAMETHONIUM] | 0 | 0 | 0 | 0 | 0 | 0 | 0 | 0 | 0 | 0 | 0 | 0 | 0 | 0 | 
CNCCCC12CCC(c3ccccc31)c1ccccc12 [MAPROTILINE] |  |  |  |  |  |  |  |  |  |  |  |  |  |  | HepSE_cholelithiasis (Hepatotoxicity [1]; Liver): 0; HepSE_bilirubinemia (Hepatotoxicity [2]; Liver): 0; HepSE_cholecystitis (Hepatotoxicity [3]; Liver): 0; HepSE_jaundice (Hepatotoxicity [4]; Liver): 1; HepSE_hepatic failure (Hepatotoxicity [5]; Liver): 0; HepSE_elevated liver function tests (Hepatotoxicity [6]; Liver): 0; HepSE_liver disease (Hepatotoxicity [7]; Liver): 0; HepSE_liver fatty (Hepatotoxicity [8]; Liver): 0; HepSE_liver function tests abnormal (Hepatotoxicity [9]; Liver): 0; HepSE_hepatic necrosis (Hepatotoxicity [10]; Liver): 0; HepSE_Combined Scores (Hepatotoxicity [11]; Liver): 1; HepSE_hepatomegaly (Hepatotoxicity [12]; Liver): 0; HepSE_hepatitis (Hepatotoxicity [13]; Liver): 0; HepSE_cirrhosis (Hepatotoxicity [14]; Liver): 0
CCOc1cc(CC(=O)N[C@@H](CC(C)C)c2ccccc2N2CCCCC2)ccc1C(=O)O [REPAGLINIDE] | 0 | 0 | 0 | 1 | 0 | 0 | 0 | 0 | 0 | 0 | 2 | 0 | 1 | 0 | 
CCN1CC(CCN2CCOCC2)C(c2ccccc2)(c2ccccc2)C1=O (configuration not stated) [DOXAPRAM] | 0 | 0 | 0 | 0 | 0 | 0 | 0 | 0 | 0 | 0 | 0 | 0 | 0 | 0 | 
NCCS [CYSTEAMINE] | 0 | 0 | 0 | 0 | 0 | 0 | 0 | 0 | 0 | 0 | 0 | 0 | 0 | 0 | 
C[C@@H]1C[C@H]2[C@@H]3CCC4=CC(=O)C=C[C@]4(C)[C@@]3(Cl)[C@@H](O)C[C@]2(C)[C@@]1(O)C(=O)CCl [MOMETASONE] | 0 | 0 | 0 | 0 | 0 | 0 | 0 | 0 | 0 | 0 | 0 | 0 | 0 | 0 | 
Cc1c(C)c2c(c(C)c1O)CCC(C)(COc1ccc(CC3SC(=O)NC3=O)cc1)O2 (configuration not stated) [TROGLITAZONE] | 0 | 0 | 0 | 1 | 0 | 0 | 0 | 0 | 1 | 0 | 3 | 0 | 1 | 0 | 
NCC1(CC(=O)O)CCCCC1 [GABAPENTIN] | 1 | 0 | 1 | 1 | 1 | 1 | 0 | 0 | 1 | 0 | 8 | 1 | 1 | 0 | 
O=C(O)c1cc(/N=N/c2ccc(S(=O)(=O)Nc3ccccn3)cc2)ccc1O [SULFASALAZINE] | 0 | 0 | 0 | 1 | 1 | 1 | 0 | 0 | 1 | 1 | 7 | 0 | 1 | 1 | 
Cc1ccc(N(CC2=NCCN2)c2cccc(O)c2)cc1 [PHENTOLAMINE] | 0 | 0 | 0 | 0 | 0 | 0 | 0 | 0 | 0 | 0 | 0 | 0 | 0 | 0 | 
C#Cc1cccc(Nc2ncnc3cc(OCCOC)c(OCCOC)cc23)c1 [ERLOTINIB] | 0 | 0 | 0 | 0 | 1 | 0 | 1 | 0 | 0 | 0 | 2 | 0 | 0 | 0 | 
CCCC(C)C1(CC)C(=O)NC(=O)NC1=O (configuration not stated) [PENTOBARBITAL] | 0 | 0 | 0 | 0 | 0 | 0 | 0 | 0 | 0 | 0 | 0 | 0 | 0 | 0 | 
C[C@@H](NCCCc1cccc(C(F)(F)F)c1)c1cccc2ccccc12 | 0 | 0 | 0 | 0 | 0 | 0 | 0 | 0 | 0 | 0 | 0 | 0 | 0 | 0 | 
CN1C(=O)CC(C)(c2ccccc2)C1=O (configuration not stated) [METHSUXIMIDE] | 0 | 0 | 0 | 0 | 0 | 0 | 0 | 0 | 0 | 0 | 0 | 0 | 0 | 0 | 
CNNCc1ccc(C(=O)NC(C)C)cc1 [PROCARBAZINE] | 0 | 0 | 0 | 1 | 0 | 0 | 0 | 0 | 0 | 0 | 1 | 0 | 0 | 0 | 
